From US20040101828A1, “Method for analysis of the phenoptypic characteristics of the human immunodeficiency virus (HIV)” (priority 2000, published 2004)

What was measured:
[1] = tested on: HIV virus (recombinant virus carrying reverse transcriptase from patient plasma); experiment: Recombinant virus assay (RVA): susceptibility to reverse transcriptase inhibitors, recombinant viruses from patient samples; format: cell-based, HIV-1; details: for median Resistance Index (RI) relative to NL43: 22 tested viruses from patients with ordinary treatment, 3 RVA replicates; for resistance levels (in words): sample R5
Protocol: (§1) The determination of the susceptibility of an HIV virus to a reverse transcriptase inhibitor is carried out in the following manner: 293 T cells are transfected with 7.5 μg of pSRT plasmid that is linearized by NruI, 0.1 μg of pVSV-G plasmid and 0.5 and 1 μg of the product that is obtained from the PCR reaction of the reverse transcription of HIV. The transfection precipitate is withdrawn from cells after 18 hours of incubation, and fresh growth medium is added. After 24 hours of cultivation, the supernatant is clarified by centrifuging (500 g, 15 minutes) and transferred to P4 indicating cells that were pre-incubated with serial dilutions of a reverse transcriptase inhibitor, in triplicate wells, for four hours. The range of inhibitor concentrations used varies according to the compounds. The signal that is produced by the activation of the marker gene was developed with CPRG for 48 hours as for the analysis of the susceptibility to a reverse transcriptase inhibitor, and index IC50 was calculated by using the median effect equation.
To determine if NL43 is a reference virus that is suitable for comparison with clinical isolates, a group of samples taken from patients with ordinary treatment was tested on 3 RVA replicates for their susceptibility to reverse transcriptase inhibitors.
The reproducibility of the method for determining the susceptibility of the recombinant virus (RVA) to reverse transcriptase inhibitors (RTI) was evaluated by a series of test on 5 samples, selected so as to represent a wide range of susceptibility profiles, between 4 and 8 tests per sample, by using RNA preparations and separate PCR reactions.

P4 cells = format: cell-based
Source text: The inhibitor concentration ranges that are used are selected based on the cellular toxicity of each compound and the IC50/IC90, ratio for the susceptibility of the resistant isolates (Table 1). […] A range of four serial dilutions, beginning at […], was used for the abacavir, making it possible to detect up to 60× more resistance.

Reference Virus NL4-3 = experiment: Recombinant virus assay (RVA): susceptibility to reverse transcriptase inhibitors, reference virus; format: cell-based, HIV-1
Protocol: as §1
The pSRT plasmid that brings a deletion in the region that codes for pol extending from codon 24 of reverse transcriptase (base 2618) to codon 432 of reverse transcriptase (base 3872) includes all of the mutations combined with a resistance phenomenon that are known to date. […]

[2] = tested on: HIV viruses (NL-DIM, NL4.3, LAI-L91H); experiment: Validation of fusion inhibitor susceptibility method: resistant recombinant viruses versus reference viruses T5A1 and LAI; format: cell-based, HIV-1
Protocol: The recombinations that are obtained by using for the amplification of stage (b) the pair of primers FuA: 5′ […]3′ (SEQ ID No: 23) and FuB: 5′ […]3′ (SEQ ID No: 24) followed by a second amplification, carried out with the primer: FuC: 5′ […]3′ (SEQ ID No: 25) and a mixture of the following primers: FuD1: 5′ […]3′ (SEQ ID No: 26) and FuD2: 5′ […]3′ (SEQ ID No: 27) are very effective.
Actually, to obtain a satisfactory viral production, 10-50 ng of PCR product, used in the recombination stage, is generally adequate. In this method that is intended to analyze the phenotypic fusion characteristic, a viral production corresponding to 50-400 ng/ml of p24 is obtained after transfection. For the infection of target cells, between 0.5 and 5 ng of p24/well (96-well plates) is used. The increase of the optical density that is obtained after infection of target cells is linear if the infection is conducted under these conditions.
To validate the analytical method that relates to the susceptibility of HIV viruses to fusion inhibitors, two fusion inhibitors have been used: a peptide derived from the distal helix sequence in the gp41 of HIV (called DP178 or T20) and a derivative of betulinic acid (RPR103611). For each inhibitor, the reduction of sensitivity of one or more resistant viruses (previously identified by other authors) relative to two reference viruses: a primary plasmatic virus T5A1 and a virus adapted to in-vitro cultivation (LAI) was carried out. All the viruses were produced by recombination.
The increases of IC50 for a strongly resistant NL-DIM virus (described by Rimsky, L. T. et al. J. Virol. 1998, Vol. 72, pages 896-993) and for the NL4.3 virus (which is partially resistant) were measured regarding this inhibitor.
The increase of IC50 of the LA1-L91H resistant virus (Labrosse, B. et al. J. Virol. 2000 Vol 74, pages 2142-2150) regarding this inhibitor has been measured.

[3] = biological target: Envelope protein (gp41) of the NL4.3 reference virus (HIV-1); experiment: cell-based or functional assay
[4] = biological target: Envelope protein (gp41) of the strongly resistant NL-DIM virus (HIV-1); experiment: cell-based or functional assay
[5] = sample R1 (69N/T, 70R), 6 tests
[6] = sample R2 (41L, 62V, 67N, 69N, 75I, 77L, 115F, 116Y, 151M, 181C, 184V, 190A, 208Y, 215F, 219Q), 6 tests
[7] = sample R3 (184V, 215F), 6 tests
[8] = sample R4 (41L, 67N, 69D, 184V, 190A, H208Y, 210W, 215Y), 5 tests
[9] = sample R5 (215Y, 41L, 74V, 100I, 103N), 5 tests

Compound	Resistance Index, geometric mean (IC50 in the sample relative to NL43) [1, 5]	Resistance Index, geometric mean (IC50 in the sample relative to NL43) [1, 6]	Resistance Index, geometric mean (IC50 in the sample relative to NL43) [1, 7]	Resistance Index, geometric mean (IC50 in the sample relative to NL43) [1, 8]	Resistance Index, geometric mean (IC50 in the sample relative to NL43) [1, 9]	other results
Nc1ccn([C@@H]2CS[C@H](CO)O2)c(=O)n1 [3TC, lamivudine]	1.3	>f	>	>	1.8	median Resistance Index (RI) relative to NL43 [1]: ~1.22; resistance level (in words) ([1]; sample R3): high resistance level
Cc1cn([C@H]2C[C@H](N=[N+]=[N-])[C@@H](CO)O2)c(=O)[nH]c1=O [AZT, ziodvudine]	–	–	–	–	–	toxicity for the P4 cells (P4 cells): > 300 μm
Nc1nc(NC2CC2)c2ncn([C@H]3C=C[C@@H](CO)C3)c2n1 [Abacavir]	1.1	>	4.3	6.1	1.7	IC50 index for the native stock of the virus (Reference Virus NL4-3): about 3 μM; index IC50 for the P4 cells (cellular toxicity) (P4 cells): about 250 μM
Cc1cn([C@H]2C=C[C@@H](CO)O2)c(=O)[nH]c1=O [D4T, stavudine]	–	–	–	–	–	median Resistance Index (RI) relative to NL43 [1]: around 0.92
O=c1[nH]cnc2c1ncn2[C@H]1CC[C@@H](CO)O1 [DDI]	1.4	26.9	3.1	3.0	2.6	–
O=C1Nc2ccc(Cl)cc2[C@@](C#CC2CC2)(C(F)(F)F)O1 [Efavirenz]	1.0	74.9	1.0	149.8	>	resistance levels (in words) [1]: high resistance levels
Cc1ccnc2c1NC(=O)c1cccnc1N2C1CC1 [Nevirapine]	–	–	–	–	–	resistance index ([1]; one virus carrying a mutation on codon 98 (A for S) of reverse transcriptase): 11.0; resistance levels (in words) [1]: high resistance levels
C=C(C)[C@@H]1CC[C@]2(C(=O)NCCCCCCCC(=O)N[C@@H](CC(C)C)[C@@H](O)CC(=O)O)CC[C@]3(C)[C@H](CC[C@@H]4[C@@]5(C)CC[C@H](O)C(C)(C)[C@@H]5CC[C@]43C)[C@@H]12 [RPR103611]	–	–	–	–	–	increase of IC50 ([2]; LAT-L91H resistant virus relative to LAI and to T5A1): greater than 100 ×
T20 fusion inhibitor, a peptide derived from the distal helix sequence in the gp41 of HIV (from UniProt P03377 643-678)	–	–	–	–	–	increase of IC50 relative to LAI [3]: 12.5 fold; increase of IC50 relative to T5A1 (printed 15A1) [3]: 10 fold; increase of the value of IC50 relative to LAI [4]: > 100 fold; increase of the value of IC50 relative to T5A1 [4]: 80 fold
enfuvirtide	–	–	–	–	–	increase of IC50 ([2]; partially resistant NL4.3 virus relative to 15A1): 10 ×; increase of IC50 ([2]; partially resistant NL4.3 virus relative to LAI): 12.5 ×; increase of the value of IC50 ([2]; strongly resistant DIM virus relative to LAI): more than 100 ×; increase of the value of IC50 ([2]; strongly resistant DIM virus relative to T5A1): 80 ×
